Legend:
recombinant PfTMPK [1] = target: T1, recombinant PfTMPK (Plasmodium falciparum, UniProt Q8I4S1); experiment: PfTMPK inhibition, coupled assay with pyruvate kinase and lactate dehydrogenase; format: biochemical
T1 sequence (Q8I4S1 1-210): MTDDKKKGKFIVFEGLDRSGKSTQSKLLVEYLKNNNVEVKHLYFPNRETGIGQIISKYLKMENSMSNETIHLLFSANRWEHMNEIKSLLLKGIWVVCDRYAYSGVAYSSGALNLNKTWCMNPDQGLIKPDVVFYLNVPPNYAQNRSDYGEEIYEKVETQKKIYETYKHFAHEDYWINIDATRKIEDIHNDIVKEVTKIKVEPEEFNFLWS

P. falciparum 3D7 = experiment: growth inhibition of P. falciparum, SYBR green assay; format: cell-based, Plasmodium falciparum
recombinant PfTMPK [2] = target: T1, recombinant PfTMPK; details: read-out: Km of PfTMPK for TMP; substrate constant; cited from earlier work
intrinsic clearance = format: in vitro ADME, mouse; details: for microsomal stability (CLi): female CD1 mouse liver microsomes, 0.5 µM compound; for microsomal stability / in vitro DMPK properties, in words: hepatic microsomes
[3] = plasma protein binding by equilibrium dialysis; format: in vitro ADME, mouse; details: for plasma protein binding (% bound): female CD1 mouse plasma, equilibrium dialysis 5 h, 37 °C

| inhibitory activity against PfTMPK, in words (recombinant PfTMPK [1]) | SMILES | activity against the parasite, in words (P. falciparum 3D7) | other results |
| --- | --- | --- | --- |
| no or very low inhibitory activity | Cc1cn([C@@H]2C[C@H](O)[C@@H](CNC(=O)c3ccc4ccccc4c3)O2)c(=O)[nH]c1=O [Compound 11] | – | – |
| no or very low inhibitory activity | Cc1cn([C@@H]2C[C@H](O)[C@@H](CNC(=O)c3ccc([N+](=O)[O-])cc3)O2)c(=O)[nH]c1=O [Compound 12] | – | – |
| no or very low inhibitory activity | Cc1cn([C@H]2C[C@H](O)[C@@H](CNS(=O)(=O)c3ccc4ccccc4c3)O2)c(=O)[nH]c1=O [Compound 35] | – | – |
| no or very low inhibitory activity | Cc1cn([C@H]2C[C@H](O)[C@@H](CNCc3ccc([N+](=O)[O-])cc3)O2)c(=O)[nH]c1=O [Compound 38] | – | – |
| no or very low inhibitory activity | Cc1cn([C@H]2C[C@H](O)[C@@H](CNS(=O)(=O)c3ccc([N+](=O)[O-])cc3)O2)c(=O)[nH]c1=O [Compound 34] | – | – |
| no or very low inhibitory activity | Cc1cn([C@H]2C[C@H](O)[C@@H](CNC(=O)c3ccc([N+](=O)[O-])cc3)O2)c(=O)[nH]c1=O [Compound 37] | – | – |
| no or very low inhibitory activity | Cc1cn([C@@H]2C[C@H](O)[C@@H](CNS(=O)(=O)c3ccc([N+](=O)[O-])cc3)O2)c(=O)[nH]c1=O [Compound 9] | – | – |
| no or very low inhibitory activity | Cc1cn([C@@H]2C[C@H](O)[C@@H](CNS(=O)(=O)c3ccc4ccccc4c3)O2)c(=O)[nH]c1=O [Compound 10] | – | – |

Further lines, the compound ahead of its results:

| SMILES | inhibitory activity against PfTMPK, in words (recombinant PfTMPK [1]) | activity against the parasite, in words (P. falciparum 3D7) | other results |
| --- | --- | --- | --- |
| Cc1cn([C@@H]2C[C@H](O)[C@@H](CNC(=O)Nc3ccc(OCc4ccc(Cl)cc4)cc3)O2)c(=O)[nH]c1=O [Compound 86, N-(5′-Deoxy-α-thymidin-5′-yl)-N′-(4-(4-chlorobenzyloxy)phenyl)urea] | – | sub-micromolar activity | – |
| Cc1cn([C@H]2C[C@H](O)[C@@H](COP(=O)(O)O)O2)c(=O)[nH]c1=O [TMP, thymidine monophosphate] | – | – | Km (recombinant PfTMPK [2]): 11 µM |
| Cc1cn([C@@H]2C[C@H](O)[C@@H](CNC(=O)Nc3ccc(-c4ccccc4)cc3)O2)c(=O)[nH]c1=O [Compound 57] | – | sub-micromolar activity | microsomal stability (CLi) (intrinsic clearance): 1.9 mL/min/g; microsomal stability / in vitro DMPK properties, in words (intrinsic clearance): good in vitro DMPK properties; plasma protein binding (% bound) [3]: 92.0 % bound |
| Cc1cn([C@H]2C[C@H](O)[C@@H](CNC(=O)c3ccc4ccccc4c3)O2)c(=O)[nH]c1=O [Compound 36] | no or very low inhibitory activity | – | – |
| Cc1cn([C@@H]2C[C@H](O)[C@@H](CNC(=O)Nc3ccc(OCc4cccc(Cl)c4)cc3)O2)c(=O)[nH]c1=O [Compound 85, N-(5′-Deoxy-α-thymidin-5′-yl)-N′-(4-(3-chlorobenzyloxy)phenyl)urea] | – | sub-micromolar activity | – |
| Cc1cn([C@@H]2C[C@H](O)[C@@H](CNCc3ccc([N+](=O)[O-])cc3)O2)c(=O)[nH]c1=O [Compound 13] | no or very low inhibitory activity | – | – |
| COc1ccc(NC(=O)NC[C@H]2O[C@H](n3cc(C)c(=O)[nH]c3=O)C[C@@H]2O)cc1 [Compound 26] | – | – | increase in potency against the parasite compared to compound 17 (P. falciparum 3D7; ratio of EC50 values versus starting compound 17): 10 fold |
| Cc1cn([C@@H]2C[C@H](O)[C@@H](CNC(=O)Nc3ccc(N4CCCCC4)cc3)O2)c(=O)[nH]c1=O [Compound 63] | – | sub-micromolar activity | microsomal stability (CLi) (intrinsic clearance): 0.5 mL/min/g; microsomal stability / in vitro DMPK properties, in words (intrinsic clearance): good in vitro DMPK properties; unbound fraction in plasma, in words [3]: particularly large unbound fraction; plasma protein binding (% bound) [3]: 52.3 % bound |
| Cc1cn([C@@H]2C[C@H](O)[C@@H](CNC(=O)Nc3ccc(OCc4ccccc4)cc3)O2)c(=O)[nH]c1=O [Compound 60] | – | sub-micromolar activity | microsomal stability (CLi) (intrinsic clearance): 3 mL/min/g; microsomal stability / in vitro DMPK properties, in words (intrinsic clearance): good in vitro DMPK properties; plasma protein binding (% bound) [3]: 81.2 % bound |
| Cc1cn([C@@H]2C[C@H](O)[C@@H](CNC(=O)Nc3ccc(Oc4ccccc4)cc3)O2)c(=O)[nH]c1=O [Compound 66] | – | sub-micromolar activity | microsomal stability (CLi) (intrinsic clearance): 1.8 mL/min/g; microsomal stability / in vitro DMPK properties, in words (intrinsic clearance): good in vitro DMPK properties; plasma protein binding (% bound) [3]: 90.5 % bound |
| Cc1cn([C@@H]2C[C@H](O)[C@@H](CNC(=O)Nc3ccc(OCc4ccccc4Cl)cc3)O2)c(=O)[nH]c1=O [Compound 84, N-(5′-Deoxy-α-thymidin-5′-yl)-N′-(4-(2-chlorobenzyloxy)phenyl)urea] | – | sub-micromolar activity | microsomal stability (CLi) (intrinsic clearance): 6 mL/min/g; microsomal stability / in vitro DMPK properties, in words (intrinsic clearance): rapid turnover; plasma protein binding (% bound) [3]: 94.1 % bound |
| COc1ccc(COc2ccc(NC(=O)NC[C@H]3O[C@H](n4cc(C)c(=O)[nH]c4=O)C[C@@H]3O)cc2)cc1 [Compound 87, N-(5′-Deoxy-α-thymidin-5′-yl)-N′-(4-(4-methyoxybenzyloxy)phenyl)urea] | – | sub-micromolar activity | – |
| Cc1cn([C@H]2C[C@H](O)[C@@H](CNC(=O)Nc3ccc(OCc4ccccc4Cl)cc3)O2)c(=O)[nH]c1=O [Compound 89] | – | sub-micromolar activity | drop in activity of β-derivative relative to α-derivative 84 (P. falciparum 3D7): 20 fold |
